Measurements published in patent US20070066615A1, “Heterocyclic compounds” (BAYER HEATHCARE AG, priority 2003, published 2007).

melting point: 201 °C (dec.)
SMILES: O=C(NCC1CN(c2ccc(N3CCCC3=O)cc2)C(=O)CO1)c1ccc(Cl)s1 (stereo not shown) [Example 4, 5-Chloro-N-({5-oxo-4-[4-(2-oxo-1-pyrrolidinyl)phenyl]-2-morpholinyl}methyl)-2-thiophenecarboxamide]
